Experimental data reported in patent EP3375430A1, “FRAGRANCE COMPOSITIONS” (Takasago International Corporation, priority 2017, dated 2018).

Key:
[1] = Headspace concentration of fragrance ingredients over blotter (thermal desorption GC-MS); type: physicochemical; settings: fragrance TAK;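 as to headspace concentration in composition C1 compared to control EdT1: C1 is an invention composition and EdT1 a conventional EdT of fragrance TAK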
How it was run: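 Fragrance (100µL) applied to a 10 cm perfumers' blotter held on a 32°C hot plate, equilibrated 5 min; headspace drawn through Tenax TA tubes at 17mL/min until 280mL collected, repeated at later sampling times. Tubes thermally desorbed splitless onto HP-5MS column, GC-MS detection, mass range 35 to 350.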

[2] = Amount of fragrance ingredients retained on paper blotter after evaporation (ethanol extraction, GC-MS); type: physicochemical
How it was run: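 100 µL of fragrance formulation applied to paper blotters kept at 32°C open to air; at each time three blotters extracted 1 h in ethanol with methyl decanoate internal standard and analysed by GC-MS (HP-5MS, 50–280°C). Amounts averaged over triplicates and expressed as percent of time-zero level.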

For `C=CC(C)(O)CCC=C(C)C` (stereo not drawn) [Linalool], the “headspace concentration in composition C1 compared to control EdT1” value ([1]; T0 + 4h, Figure 3) was “significantly greater”, the “headspace concentration in composition C14 compared to control EdT1” value ([1]; T0+4h and T0+8h, Figures 17 and 18) was “significantly greater” and the “headspace concentration in composition C15 compared to control EdT1” value ([1]; T0+4h and T0+8h, Figures 20 and 21, difference significant for linalool, linalyl acetate and Verdox™) was “greater”. The “headspace concentration in composition C1 compared to control EdT1” value ([1]; T0 + 8h, Figure 4) was “much greater”, the “headspace concentration in composition C1 compared to control EdT1” value ([1]; after 1 hour, Figure 2) was “greater” and the “amount of fragrance ingredient retained on blotter (percentage of the initial amount)” value (shortened to “amount … (percentage of the initial amount)”) ([2]; Table 3, fragrance TAK in C1, 15 min, 32°C) was 80%. The “amount … (percentage of the initial amount)” value ([2]; Table 3, fragrance TAK in C1, 60 min, 32°C) was 61%, the “amount … (percentage of the initial amount)” value ([2]; Table 3, fragrance TAK in C1, 120 min, 32°C) was 35% and the “amount … (percentage of the initial amount)” value ([2]; Table 3, fragrance TAK in C1, 240 min, 32°C) was 13%. For the same compound, the “amount … (percentage of the initial amount)” value ([2]; Table 3, fragrance TAK in C1, 480 min, 32°C) was 3%, the “amount … (percentage of the initial amount)” value ([2]; Table 3, fragrance TAK in EdT1, 15 min, 32°C) was 57% and the “amount … (percentage of the initial amount)” value ([2]; Table 3, fragrance TAK in EdT1, 60 min, 32°C) was 9%. For the same compound, the “amount … (percentage of the initial amount)” value ([2]; Table 3, fragrance TAK in EdT1, 120 min, 32°C) was 1%, the “amount … (percentage of the initial amount)” value ([2]; Table 3, fragrance TAK in EdT1, 240 min, 32°C) was 1% and the “amount … (percentage of the initial amount)” value ([2]; Table 3, fragrance TAK in EdT1, 480 min, 32°C) was under 1%. For the same compound, the “amount … (percentage of the initial amount)” value ([2]; Table 3, fragrance TAK in EdT1 or C1, T0, set at 100% (normalisation)) was 100%, the “amount … (percentage of the initial amount)” value ([2]; Table 4, fragrance TAK in C2, 15 min, 32°C) was 92% and the “amount … (percentage of the initial amount)” value ([2]; Table 4, fragrance TAK in C2, 480 min, 32°C) was 4%. The “amount … (percentage of the initial amount)” value ([2]; Table 4, fragrance TAK in EdT1, 15 min, 32°C) was 58%, the “amount … (percentage of the initial amount)” value ([2]; Table 4, fragrance TAK in EdT1, 480 min, 32°C) was 3% and the “amount … (percentage of the initial amount)” value ([2]; Table 4, fragrance TAK in EdT1 or C2, T0, set at 100% (normalisation)) was 100%. The “amount … (percentage of the initial amount)” value ([2]; Table 5, fragrance TAK in C3, 15 min, 32°C) was 85%, the “amount … (percentage of the initial amount)” value ([2]; Table 5, fragrance TAK in C3, 60 min, 32°C) was 61% and the “amount … (percentage of the initial amount)” value ([2]; Table 5, fragrance TAK in C3, 120 min, 32°C) was 37%. For the same compound, the “amount … (percentage of the initial amount)” value ([2]; Table 5, fragrance TAK in C3, 240 min, 32°C) was 18%, the “amount … (percentage of the initial amount)” value ([2]; Table 5, fragrance TAK in C3, 480 min, 32°C) was 3% and the “amount … (percentage of the initial amount)” value ([2]; Table 5, fragrance TAK in C3, 1440 min, 32°C) was 1%. The “amount … (percentage of the initial amount)” value ([2]; Table 5, fragrance TAK in EdT1, 15 min, 32°C) was 57%, the “amount … (percentage of the initial amount)” value ([2]; Table 5, fragrance TAK in EdT1, 60 min, 32°C) was 9% and the “amount … (percentage of the initial amount)” value ([2]; Table 5, fragrance TAK in EdT1, 120 min, 32°C) was 1%. For the same compound, the “amount … (percentage of the initial amount)” value ([2]; Table 5, fragrance TAK in EdT1, 240 min, 32°C) was under 1%, the “amount … (percentage of the initial amount)” value ([2]; Table 5, fragrance TAK in EdT1, 480 min, 32°C) was under 1% and the “amount … (percentage of the initial amount)” value ([2]; Table 5, fragrance TAK in EdT1, 1440 min, 32°C) was under 1%. The “amount … (percentage of the initial amount)” value ([2]; Table 5, fragrance TAK in EdT1 or C3, T0, set at 100% (normalisation)) was 100%, the “amount … (percentage of the initial amount)” value ([2]; Table 6, fragrance TAK in C4, 15 min, 32°C) was 81% and the “amount … (percentage of the initial amount)” value ([2]; Table 6, fragrance TAK in C4, 60 min, 32°C) was 61%. The “amount … (percentage of the initial amount)” value ([2]; Table 6, fragrance TAK in C4, 120 min, 32°C) was 28%, the “amount … (percentage of the initial amount)” value ([2]; Table 6, fragrance TAK in C4, 240 min, 32°C) was 13% and the “amount … (percentage of the initial amount)” value ([2]; Table 6, fragrance TAK in C4, 480 min, 32°C) was 8%. The “amount … (percentage of the initial amount)” value ([2]; Table 6, fragrance TAK in EdT1, 15 min, 32°C) was 57%, the “amount … (percentage of the initial amount)” value ([2]; Table 6, fragrance TAK in EdT1, 60 min, 32°C) was 9% and the “amount … (percentage of the initial amount)” value ([2]; Table 6, fragrance TAK in EdT1, 120 min, 32°C) was 1%. For the same compound, the “amount … (percentage of the initial amount)” value ([2]; Table 6, fragrance TAK in EdT1, 240 min, 32°C) was under 1%, the “amount … (percentage of the initial amount)” value ([2]; Table 6, fragrance TAK in EdT1, 480 min, 32°C) was under 1% and the “amount … (percentage of the initial amount)” value ([2]; Table 6, fragrance TAK in EdT1 or C4, T0, set at 100% (normalisation)) was 100%.
